Data: patent publication US9980973B2, “Bicyclic heterocycle compounds and their uses in therapy” (ASTEX THERAPEUTICS LIMITED, priority 2012, dated 2018)
Where a name gives a salt, the structure may show the parent alone. Read-outs that look alike come from different tables or passages of the source.

What was measured:
[1] = biological target: T1, BIR3 domain of human XIAP (Homo sapiens, UniProt P98170); test: XIAP in vitro competitive displacement binding assay (fluorescence polarization); conditions: for inhibition at 0.04 µM: 1 h, PI at 0.04 μM, read-out: Xiap IC50 or PI μM (PI)
T1 construct: BIR3 domain of human XIAP (residues 252-350) fused to a His-tag; His-tag (cleaved yes); made in house; host or cells: Escherichia coli

[2] = system: EVSA-T (human breast carcinoma); test: Anti-proliferative activity, Alamar Blue assay, EVSA-T; format: cell-based
[3] = Homo sapiens, EVSA-T, 72 h, EVSA-T cells, 72 hours, Alamar Blue, read-out: EVSA-T prolif
[4] = Homo sapiens, EVSA-T, read-out: EC50 in EVSA-T cell line assays
[5] = EVSA-T cells, 72 hours, Alamar Blue, dihydrochloride, read-out: EVSA-T prolif
[6] = plain number = IC50, average where more than one data point, read-out: Xiap IC50 or PI μM (IC50)

T1 sequence (P98170 252-350): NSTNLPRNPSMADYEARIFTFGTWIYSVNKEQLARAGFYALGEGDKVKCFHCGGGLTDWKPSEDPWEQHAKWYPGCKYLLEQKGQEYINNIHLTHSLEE

| SMILES | inhibition at 0.04 µM [1] [%] | EC50 [2, 3] [nM] | EC50 [2, 4] [nM] | EC50 [2, 5] [nM] | IC50 ([1]; or at least 50% inhibition of the activity at 0.1 μM, read-out: IC50 in the XIAP assay) [µM] | IC50 [1, 6] [µM] | EC50 ([2]; EVSA-T cells, 72 hours, Alamar Blue, hydrochloride, read-out: EVSA-T prolif) [nM] |
| --- | --- | --- | --- | --- | --- | --- | --- |
| C[C@@H]1CN(CC(=O)N2CC(C)(C)c3ncc(C(O)c4cccc(F)c4F)cc32)[C@@H](CN2[C@H](C)COC[C@H]2C)CN1 (single isomer, unassigned) [Example 111, (R or S)-1-{6-[(2,3-Difluorophenyl)(hydroxy)meth-yl]-3,3-dimethyl-1H,2H,3H-pyrrolo[3,2-b]pyridin-1-yl}-2-[(2R,5R)-2-{[(3R,5R)-3,5-dimethylmorpholin-4-yl]methyl}-5-methylpiperazin-1-yl]ethan-1-one dihydrochloride] | 45 | 25 | < 1000 |  |  |  |  |
| C[C@@H]1CN(CC(=O)N2CC(C)(C)c3ncc(C(O)c4ccccc4F)cc32)[C@@H](CN2[C@H](C)COC[C@H]2C)CN1 (single isomer, unassigned) [Example 107, 2-[(2R,5R)-2-{[(3R,5R)-3,5-Dimethylmorpholin-4-yl]methyl}-5-methylpiperazin-1-yl]-1-{6-[(R or S)-(2-fluorophenyl)-(hydroxy)methyl]-3,3-dimethyl-1H,2H,3H-pyrrolo[3,2-b]pyridin-1-yl}ethan-1-one dihydrochloride] | 57 |  | < 1000 | 7.1 |  |  |  |
| C[C@@H]1CN(CC(=O)N2CC(C)(C)c3cc(C#N)c(Cc4ccc(F)cc4)cc32)[C@@H](CN2[C@H](C)COC[C@H]2C)CN1 [Example 92, 1-{2-[(2R,5R)-2-{[(3R,5R)-3,5-Dimethylmorpholin-4-yl]methyl}-5-methylpiperazin-1-yl]acetyl}-6-[(4-fluroophenyl)methyl]-3,3-dimethyl-2,3-dihydro-1H-indole-5-carbonitrile dihydrochloride] | 54 | 2.7 | < 1000 |  |  |  |  |
| C[C@@H]1CN(CC(=O)N2CC(C)(C)c3ncc(Cc4ccc(F)cc4)cc32)[C@@H](CN2C[C@H](C)NC(=O)[C@H]2C)CN1 [Example 48, (3R,6S)-4-{[(2R,5R)-1-(2-(6-[(4-Fluorophenyl)methyl]-3,3-dimethyl-1H,2H,3H-pyrrolo[3,2-b]pyridin-1-yl}-2-oxoethyl)-5-methylpiperazin-2-yl]methyl}-3,6-dimethylpiperazin-2-one, dihydrochloride] | 49 | 4.3 | < 1000 |  |  |  |  |
| COC[C@@]1(C)COCCN1C[C@H]1CN[C@H](C)CN1CC(=O)N1CC(C)(C)c2cnc(Cc3ccc(F)cc3F)cc21 [Example 98, 1-{6-[(2,4-Difluorophenyl)methyl]-3,3-dimethyl-1H,2H,3H-pyrrolo[3,2-c]pyridin-1-yl}-2-[(2R,5R)-2-{[(3S)-3-(methoxymethyl)-3-methylmorpholin-4-yl]methyl}-5-methylpiperazin-1-yl]ethan-1-one dihydrochloride] | 62 | 7.3 | < 1000 |  | < 0.1 |  |  |
| C[C@@H]1CN(CC(=O)N2CC(C)(C)c3ncc(Cc4ccc(F)cc4)cc32)[C@@H](CN2CCC[C@@H]2C(F)(F)F)CN1 [Example 38, 1-{6-[(4-Fluorophenyl)methyl]-3,3-dimethyl-1H,2H,3H-pyrrolo[3,2-b]pyridin-1-yl}-2-[(2R,5R)-5-methyl-2-{[(2R)-2-(trifluoromethyl)pyrrolidin-1-yl]methyl}piperazin-1-yl]ethan-1-one] |  | 34 | < 1000 |  |  | 0.48 |  |
| CCCC(F)(F)c1cc2c(cn1)C(C)(C)CN2C(=O)CN1C[C@@H](C)NC[C@@H]1CN1[C@H](C)COC[C@H]1C [Example 44, 1-[6-(1,1-Difluorobutyl)-3,3-dimethyl-1H,2H,3H-pyrrolo[3,2-c]pyridin-1-yl]-2-[2R,5R)-2-{[(3R,5R)-3,5-dimethylmorpholin-4-yl]methyl}-5-methylpiperazin-1-yl]ethan-1-one, dihydrochloride] | 78 | 1 | < 1000 |  |  |  |  |
| C[C@@H]1CN(CC(=O)N2CC(C)(C)c3cnc(Cc4ccc(F)cc4F)cc32)[C@@H](CN2CCOC[C@@]2(C)CO)CN1 (single isomer, unassigned) [Example 67, dihydrochloride] | 65 | 3.7 | < 1000 |  |  |  |  |
| C[C@@H]1CN(CC(=O)N2CC(C)(C)c3ncc(Cc4ccc(F)cc4)cc32)[C@@H](CN2CCC[C@H]2CO)CN1 [Example 12, 1-{6-[(4-Fluorophenyl)methyl]-3,3-dimethyl-1H,2H,3H-pyrrolo[3,2-b]pyridin-1-yl}-2-[(2R,5R)-2-{[(2S)-2-(hydroxymethyl)pyrrolidin-1-yl]methyl}-5-methylpiperazin-1-yl]ethan-1-one dihydrochloride] |  | 1.6 | < 1000 |  |  | 0.15 |  |
| COC[C@@H]1COCCN1C[C@H]1CN[C@H](C)CN1CC(=O)N1CC(C)(C)c2ncc(Cc3ccc(F)cc3)cc21 [Example 1, 1-{6-[(4-Fluorophenyl)methyl]-3,3-dimethyl-1H,2H,3H-pyrrolo[3,2-b]pyridin-1-yl}-2-[(2R,5R)-2-{[(3R)-3-(methoxymethyl)morpholin-4-yl]methyl}-5-methylpiperazin-1-yl]ethan-1-one dihydrochloride] | 35 | 2.9 | < 1000 |  |  |  |  |
| C[C@@H]1CN(CC(=O)N2CC(C)(C)c3ncc(Cc4ccc(F)cc4)cc32)[C@@H](CN2CCOCC2C(F)(F)F)CN1 (single isomer, unassigned) [Example 25, 1-{6-[(4-Fluorophenyl)methyl]-3,3-dimethyl-1H,2H,3H-pyrrolo[3,2-b]pyridin-1-yl}-2-[(2R,5R)-5-methyl-2-{[3-([R or S]trifluoromethyl)morpholin-4-yl]methyl}piperazin-1-yl]ethan-1-one hydrochloride] |  |  | < 1000 |  |  | 0.12 | 1.2 |
| C[C@@H]1CN(CC(=O)N2CC(C)(C)c3ncc(Cc4ccc(F)cc4)cc32)[C@@H](CN2CCCC(F)(F)C2)CN1 [Example 3, 2-[(2R,5R)-2-[(3,3-Difluoropiperidin-1-yl)methyl]-5-methylpiperazin-1-yl]-1-{6-[(4-fluorophenyl)methyl]-3,3-dimethyl-1H,2H,3H-pyrrolo[3,2-b]pyridin-1-yl}ethan-1-one dihydrochloride] | 37 | 6.8 | < 1000 |  |  |  |  |
| C[C@@H]1CN(CC(=O)N2CC(C)(C)c3ncc(C(O)c4cc(F)ccc4F)cc32)[C@@H](CN2[C@H](C)COC[C@H]2C)CN1 (single isomer, unassigned) [Example 116, 1-{(R or S)-6-[(2,5-Difluorophenyl)(hydroxy)meth-yl]-3,3-dimethyl-1H,2H,3H-pyrrolo[3,2-b]pyridin-1-yl}-2-[(2R,5R)-2-{[(3R,5R)-3,5-dimethylmorpholin-4-yl]methyl}-5-methylpiperazin-1-yl]ethan-1-one dihydrochloride] | 47 |  |  | 55 |  |  |  |
| C[C@@H]1CN(CC(=O)N2CC(C)(C)c3ncc(Cc4ccc(F)cc4)cc32)[C@@H](CN2CCOC[C@H]2CO)CN1 [Example 2, 1-{6-[(4-Fluorophenyl)methyl]-3,3-dimethyl-1H,2H,3H-pyrrolo[3,2-b]pyridin-1-yl}-2-[(2R,5R)-2-{[(3R)-3-(hydroxymethyl)morpholin-4-yl]methyl}-5-methylpiperazin-1-yl]ethan-1-one dihydrochloride] | 40 | 1.7 | < 1000 |  |  |  |  |
| C[C@@H]1CN(CC(=O)N2CC(C)(C)c3cnc(Cc4ccc(F)cc4)cc32)[C@@H](CN2[C@H](C)COC[C@H]2C)CN1 [Example 55, 2-[(2R,5R)-2-{[(3R,5R)-3,5-Dimethylmorpholin-4-yl]methyl}-5-methylpiperazin-1-yl]-1-{6-[(4-fluorophenyl)methyl]-3,3-dimethyl-1H,2H,3H-pyrrolo[3,2-c]pyridin-1-yl}ethan-1-one, dihydrochloride] | 59 | 0.23 | < 1000 |  |  |  |  |
| C[C@@H]1CN(CC(=O)N2CC(C)(C)c3cnc(Cc4ccc(F)cc4)cc32)[C@@H](CN2CCOC[C@@]2(C)CO)CN1 [Example 62, 1-{6-[(4-Fluorophenyl)methyl]-3,3-dimethyl-1H,2H,3H-pyrrolo[3,2-c]pyridin-1-yl}-2-[(2R,5R)-2-{[(3R)-3-(hydroxymethyl)-3-methylmorpholin-4-yl]methyl}-5-methylpiperazin-1-yl]ethan-1-one, dihydrochloride] | 60 | 1.1 | < 1000 |  |  |  |  |
| C[C@@H]1CN(CC(=O)N2CC(C)(C)c3ncc(C(O)c4cccc(F)c4)cc32)[C@@H](CN2[C@H](C)COC[C@H]2C)CN1 (single isomer, unassigned) [Example 105, 2-[(2R,5R)-2-{[(3R,5R)-3,5-Dimethylmorpholin-4-yl]methyl}-5-methylpiperazin-1-yl]-1-{6-[(R or S)-(3-fluorophenyl)-(hydroxy)methyl]-3,3-dimethyl-1H,2H,3H-pyrrolo[3,2-b]pyridin-1-yl}ethan-1-one dihydrochloride] | 60 |  | < 1000 | 35 |  |  |  |
| C[C@@H]1CN(CC(=O)N2CC(C)(C)c3nnc(Cc4ccc(F)cc4F)cc32)[C@@H](CN2[C@H](C)COC[C@H]2C)CN1 [Example 88, 1-{3-[(2,4-Difluorophenyl)methyl]-7,7-dimethyl-5H,6H,7H-pyrrolo[3,2-c]pyridazin-5-yl}-2-[(2R,5R)-2-{[(3R,5R)-3,5-dimethymorpholin-4-yl]methyl}-5-methylpiperazin-1-yl]ethan-1-one dihydrochloride] |  | 0.24 | < 1000 |  |  | 0.22 |  |
